Measurements reported in patent publication US10597388B2, “Pyridazinone herbicides” (FMC CORPORATION, priority 2014, dated 2020).

Experiments:
Type in all cases: in vivo
[1] = system: blackgrass (Alopecurus myosuroides); test: Test C greenhouse herbicide test, pre- and postemergence
Method in brief: (§1)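 Preemergence: seeds sown in a loam soil–sand blend and sprayed with test chemicals in a non-phytotoxic solvent mixture containing surfactant. Postemergence: plants grown in peat-based medium and treated at 2 to 18 cm (1- to 4-leaf stage). After 13 to 15 d in a greenhouse, injury was visually rated 0–100 against controls.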

corn (Zea mays) = test: as above
Method in brief: as §1

[2] = system: crabgrass, large (large crabgrass, Digitaria sanguinalis); test: as above
Method in brief: as §1

[3] = system: foxtail, giant (giant foxtail, Setaria faberii); test: as above
Method in brief: as §1

[4] = system: johnsongrass (Sorghum halepense); test: as above
Method in brief: as §1

[5] = system: lambsquarters (Chenopodium album); test: as above
Method in brief: as §1

[6] = system: morningglory (Ipomoea coccinea); test: as above
Method in brief: as §1

[7] = system: oilseed rape (Brassica napus); test: as above
Method in brief: as §1

[8] = system: pigweed (Amaranthus retroflexus); test: as above
Method in brief: as §1

[9] = system: ragweed (common ragweed, Ambrosia elatior); test: as above
Method in brief: as §1

[10] = system: ryegrass, Italian (Italian ryegrass, Lolium multiflorum); test: as above
Method in brief: as §1

soybean (Glycine max) = test: as above
Method in brief: as §1

[11] = system: velvetleaf (Abutilon theophrasti); test: as above
Method in brief: as §1

[12] = system: waterhemp (common waterhemp, Amaranthus rudis); test: as above
Method in brief: as §1

kochia (Kochia scoparia) = test: Test C greenhouse herbicide test, postemergence
Method in brief: (§2)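 Seedlings are raised in pots of peat moss–vermiculite medium with starter nutrients, then receive postemergence test chemical at the 1- to 4-leaf stage. They are kept in the greenhouse 13 to 15 d and scored visually versus controls, 0 meaning no effect and 100 complete control.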

[13] = system: oat, wild (wild oat, Avena fatua); test: Test C greenhouse herbicide test, postemergence
Method in brief: as §2

[14] = Postemergence, 31 g ai/ha, scale 0 to 100 (0 no effect, 100 complete control)
[15] = Postemergence, 62 g ai/ha, 0 to 100 scale (0 no effect, 100 complete control)
[16] = Postemergence, 250 g ai/ha, scale 0 to 100, 0 no effect, 100 complete control, 13 to 15 d
[17] = Preemergence, 31 g ai/ha, scale 0 to 100, 0 is no effect, 100 is complete control
[18] = Preemergence, 62 g ai/ha, scale 0 to 100, 0 is no effect, 100 is complete control
[19] = Preemergence, 125 g ai/ha, scale 0 to 100, 0 is no effect, 100 is complete control
[20] = Preemergence, 250 g ai/ha, scale 0 to 100 (0 no effect, 100 complete control)
[21] = postemergence, 125 g ai/ha, scale 0 to 100, 0 no effect, 100 complete control

Cc1cc(C)c2ccccc2c1-c1c(OS(C)(=O)=O)c(C)nn(C)c1=O [Compound 154]
Plant response rating, Blackgrass [1, 14]: 60 | Blackgrass plant response rating [1, 15]: 65 | Plant response rating, Blackgrass [1, 16]: 85 | Plant response rating, Blackgrass [1, 17]: 5 | Plant response rating, Blackgrass [1, 18]: 50 | Plant response rating, Blackgrass [1, 19]: 85 | Blackgrass plant response rating [1, 20]: 90 | Blackgrass plant response rating [1, 21]: 60 | Plant response rating, Corn (corn (Zea mays); [14]): 15 | Corn plant response rating (corn (Zea mays); [15]): 5 | Plant response rating, Corn (corn (Zea mays); [16]): 5 | Plant response rating, Corn (corn (Zea mays); [17]): 5 | Plant response rating, Corn (corn (Zea mays); [18]): 5 | Plant response rating, Corn (corn (Zea mays); [19]): 5 | Corn plant response rating (corn (Zea mays); [20]): 5 | Corn plant response rating (corn (Zea mays); [21]): 5 | Plant response rating, Crabgrass, Large [2, 14]: 65 | Crabgrass, Large plant response rating [2, 15]: 70 | Plant response rating, Crabgrass, Large [2, 16]: 75 | Plant response rating, Crabgrass, Large [2, 17]: 70 | Plant response rating, Crabgrass, Large [2, 18]: 85 | Plant response rating, Crabgrass, Large [2, 19]: 90 | Crabgrass, Large plant response rating [2, 20]: 100 | Crabgrass, Large plant response rating [2, 21]: 70 | Plant response rating, Foxtail, Giant [3, 14]: 85 | Foxtail, Giant plant response rating [3, 15]: 90 | Plant response rating, Foxtail, Giant [3, 16]: 95 | Plant response rating, Foxtail, Giant [3, 17]: 85 | Plant response rating, Foxtail, Giant [3, 18]: 95 | Plant response rating, Foxtail, Giant [3, 19]: 100 | Foxtail, Giant plant response rating [3, 20]: 100 | Foxtail, Giant plant response rating [3, 21]: 95 | Plant response rating, Johnsongrass [4, 14]: 5 | Johnsongrass plant response rating [4, 15]: 5 | Plant response rating, Johnsongrass [4, 16]: 20 | Plant response rating, Johnsongrass [4, 17]: 10 | Plant response rating, Johnsongrass [4, 18]: 45 | Plant response rating, Johnsongrass [4, 19]: 50 | Johnsongrass plant response rating [4, 20]: 75 | Johnsongrass plant response rating [4, 21]: 20 | Plant response rating, Lambsquarters [5, 14]: 90 | Lambsquarters plant response rating [5, 15]: 85 | Plant response rating, Lambsquarters [5, 16]: 95 | Plant response rating, Lambsquarters [5, 17]: 15 | Plant response rating, Lambsquarters [5, 18]: 60 | Plant response rating, Lambsquarters [5, 19]: 85 | Lambsquarters plant response rating [5, 20]: 95 | Lambsquarters plant response rating [5, 21]: 90 | Plant response rating, Morningglory [6, 14]: 95 | Morningglory plant response rating [6, 15]: 98 | Plant response rating, Morningglory [6, 16]: 100 | Plant response rating, Morningglory [6, 17]: 45 | Plant response rating, Morningglory [6, 18]: 85 | Plant response rating, Morningglory [6, 19]: 85 | Morningglory plant response rating [6, 20]: 90 | Morningglory plant response rating [6, 21]: 98 | Plant response rating, Oilseed Rape [7, 14]: 75 | Oilseed Rape plant response rating [7, 15]: 90 | Plant response rating, Oilseed Rape [7, 16]: 95 | Plant response rating, Oilseed Rape [7, 17]: 80 | Plant response rating, Oilseed Rape [7, 18]: 85 | Plant response rating, Oilseed Rape [7, 19]: 98 | Oilseed Rape plant response rating [7, 20]: 98 | Oilseed Rape plant response rating [7, 21]: 98 | Plant response rating, Pigweed [8, 14]: 65 | Pigweed plant response rating [8, 15]: 85 | Plant response rating, Pigweed [8, 16]: 85 | Plant response rating, Pigweed [8, 17]: 55 | Plant response rating, Pigweed [8, 18]: 95 | Plant response rating, Pigweed [8, 19]: 100 | Pigweed plant response rating [8, 20]: 100 | Pigweed plant response rating [8, 21]: 90 | Plant response rating, Ragweed [9, 14]: 70 | Ragweed plant response rating [9, 15]: 75 | Plant response rating, Ragweed [9, 16]: 90 | Plant response rating, Ragweed [9, 17]: 80 | Plant response rating, Ragweed [9, 18]: 95 | Plant response rating, Ragweed [9, 19]: 90 | Ragweed plant response rating [9, 20]: 95 | Ragweed plant response rating [9, 21]: 85 | Plant response rating, Ryegrass, Italian [10, 14]: 80 | Ryegrass, Italian plant response rating [10, 15]: 90 | Plant response rating, Ryegrass, Italian [10, 16]: 95 | Plant response rating, Ryegrass, Italian [10, 17]: 40 | Plant response rating, Ryegrass, Italian [10, 18]: 55 | Plant response rating, Ryegrass, Italian [10, 19]: 90 | Ryegrass, Italian plant response rating [10, 20]: 90 | Ryegrass, Italian plant response rating [10, 21]: 90 | Plant response rating, Soybean (soybean (Glycine max); [14]): 10 | Soybean plant response rating (soybean (Glycine max); [15]): 20 | Plant response rating, Soybean (soybean (Glycine max); [16]): 25 | Plant response rating, Soybean (soybean (Glycine max); [17]): 0 | Plant response rating, Soybean (soybean (Glycine max); [18]): 5 | Plant response rating, Soybean (soybean (Glycine max); [19]): 5 | Soybean plant response rating (soybean (Glycine max); [20]): 20 | Soybean plant response rating (soybean (Glycine max); [21]): 20 | Plant response rating, Velvetleaf [11, 14]: 70 | Velvetleaf plant response rating [11, 15]: 85 | Plant response rating, Velvetleaf [11, 16]: 90 | Plant response rating, Velvetleaf [11, 17]: 40 | Plant response rating, Velvetleaf [11, 18]: 60 | Plant response rating, Velvetleaf [11, 19]: 85 | Velvetleaf plant response rating [11, 20]: 85 | Velvetleaf plant response rating [11, 21]: 85 | Plant response rating, Waterhemp [12, 14]: 75 | Waterhemp plant response rating [12, 15]: 80 | Plant response rating, Waterhemp [12, 16]: 70 | Plant response rating, Waterhemp [12, 17]: 30 | Plant response rating, Waterhemp [12, 18]: 85 | Plant response rating, Waterhemp [12, 19]: 95 | Waterhemp plant response rating [12, 20]: 100 | Waterhemp plant response rating [12, 21]: 85 | Plant response rating, Kochia (kochia (Kochia scoparia); [14]): 50 | Kochia plant response rating (kochia (Kochia scoparia); [15]): 50 | Plant response rating, Kochia (kochia (Kochia scoparia); [16]): 80 | Kochia plant response rating (kochia (Kochia scoparia); [21]): 60 | Plant response rating, Oat, Wild [13, 14]: 55 | Oat, Wild plant response rating [13, 15]: 80 | Plant response rating, Oat, Wild [13, 16]: 90 | Oat, Wild plant response rating [13, 21]: 90

COC(=O)Oc1c(C)nn(C)c(=O)c1-c1c([N+](=O)[O-])ccc2ccccc12 [Compound 162]
Plant response rating, Blackgrass [1, 14]: 10 | Blackgrass plant response rating [1, 15]: 15 | Plant response rating, Blackgrass [1, 16]: 40 | Blackgrass plant response rating [1, 21]: 30 | Plant response rating, Corn (corn (Zea mays); [14]): 0 | Corn plant response rating (corn (Zea mays); [15]): 0 | Plant response rating, Corn (corn (Zea mays); [16]): 0 | Corn plant response rating (corn (Zea mays); [21]): 0 | Plant response rating, Crabgrass, Large [2, 14]: 0 | Crabgrass, Large plant response rating [2, 15]: 5 | Plant response rating, Crabgrass, Large [2, 16]: 10 | Crabgrass, Large plant response rating [2, 21]: 10 | Plant response rating, Foxtail, Giant [3, 14]: 5 | Foxtail, Giant plant response rating [3, 15]: 15 | Plant response rating, Foxtail, Giant [3, 16]: 40 | Foxtail, Giant plant response rating [3, 21]: 15 | Plant response rating, Johnsongrass [4, 14]: 5 | Johnsongrass plant response rating [4, 15]: 5 | Plant response rating, Johnsongrass [4, 16]: 10 | Johnsongrass plant response rating [4, 21]: 5 | Plant response rating, Lambsquarters [5, 14]: 85 | Lambsquarters plant response rating [5, 15]: 95 | Plant response rating, Lambsquarters [5, 16]: 95 | Lambsquarters plant response rating [5, 21]: 90 | Plant response rating, Morningglory [6, 14]: 60 | Morningglory plant response rating [6, 15]: 85 | Plant response rating, Morningglory [6, 16]: 90 | Morningglory plant response rating [6, 21]: 85 | Plant response rating, Oilseed Rape [7, 14]: 0 | Oilseed Rape plant response rating [7, 15]: 0 | Plant response rating, Oilseed Rape [7, 16]: 0 | Oilseed Rape plant response rating [7, 21]: 0 | Plant response rating, Pigweed [8, 14]: 75 | Pigweed plant response rating [8, 15]: 80 | Plant response rating, Pigweed [8, 16]: 90 | Pigweed plant response rating [8, 21]: 85 | Plant response rating, Ragweed [9, 14]: 70 | Ragweed plant response rating [9, 15]: 85 | Plant response rating, Ragweed [9, 16]: 90 | Ragweed plant response rating [9, 21]: 75 | Plant response rating, Ryegrass, Italian [10, 14]: 60 | Ryegrass, Italian plant response rating [10, 15]: 70 | Plant response rating, Ryegrass, Italian [10, 16]: 80 | Ryegrass, Italian plant response rating [10, 21]: 70 | Plant response rating, Soybean (soybean (Glycine max); [14]): 0 | Soybean plant response rating (soybean (Glycine max); [15]): 0 | Plant response rating, Soybean (soybean (Glycine max); [16]): 0 | Soybean plant response rating (soybean (Glycine max); [21]): 0 | Plant response rating, Velvetleaf [11, 14]: 5 | Velvetleaf plant response rating [11, 15]: 15 | Plant response rating, Velvetleaf [11, 16]: 70 | Velvetleaf plant response rating [11, 21]: 30 | Plant response rating, Waterhemp [12, 14]: 45 | Waterhemp plant response rating [12, 15]: 65 | Plant response rating, Waterhemp [12, 16]: 65 | Waterhemp plant response rating [12, 21]: 70 | Plant response rating, Kochia (kochia (Kochia scoparia); [14]): 70 | Kochia plant response rating (kochia (Kochia scoparia); [15]): 80 | Plant response rating, Kochia (kochia (Kochia scoparia); [16]): 90 | Kochia plant response rating (kochia (Kochia scoparia); [21]): 90 | Plant response rating, Oat, Wild [13, 14]: 50 | Oat, Wild plant response rating [13, 15]: 60 | Plant response rating, Oat, Wild [13, 16]: 70 | Oat, Wild plant response rating [13, 21]: 70
